The source of these data is US11021470B2, “2-substituted quinazoline compounds comprising a substituted heterocyclic group and methods of use thereof” (Araxes Pharma LLC, priority 2015, dated 2021).

This assay deals with T1, KRAS G12C 1-169, his-tagged protein, GDP-loaded (Homo sapiens, UniProt P01116, G12C).
T1 construct: KRAS G12C 1-169, his-tagged protein, GDP-loaded
In words: KRAS G12C covalent binding (% modification) by mass spectrometry, ten or three minute incubation. The conditions noted are these: covalent binding to KRAS G12C, % modification after a three minute incubation period. As for the experimental part: Test compounds were prepared as 10 mM stock solutions in DMSO (Fisher cat #BP-231-100). KRAS G12C 1-169, his-tagged protein, GDP-loaded was diluted to […] in buffer (20 mM Hepes, 150 mM NaCl, 1 mM MgCl2). Compounds were tested for activity as follows:
Compounds were diluted to 50× final test concentration in DMSO in 96-well storage plates. Compound stock solutions were vortexed before use and observed carefully for any sign of precipitation. Dilutions were as follow: • For 100 μM final compound concentration, compounds were diluted to 5000 μM (5 μl 10 mM compound stock+5 μl DMSO and mixed well by pipetting. • For 30 μM final compound concentration, compounds were diluted to 1500 μM (3 μl 10 mM compound stock+17 μl DMSO) and mixed well by pipetting. • For 10 μM final compound concentration, compounds were diluted to 500 μM (2 μl 10 mM compound stock+38 μl DMSO) and mixed well by pipetting. 49 μl of the stock protein solution was added to each well of a 96-well PCR plate (Fisher cat #1423027). 1 μl of the diluted 50× compounds were added to appropriate wells in the PCR plate using 12-channel pipettor. Reactions were mixed carefully and thoroughly by pipetting up/down with a 200 μl multi-channel pipettor. […] 5 μl of 2% formic acid (Fisher cat #A117) in DI H2O was then added to each well followed by mixing with a pipette. The plate was then resealed with aluminum seal and stored on dry ice until analyzed as described below.
The above described assays were analyzed by mass spectrometry according to one of the following two procedures:
The MS instrument is set to positive polarity, 2 GHz resolution, and low mass (1700) mode and allowed to equilibrate for 30 minutes. The instrument is then calibrated, switched to acquisition mode and the appropriate method loaded.
After another 30 minute equilibration time, a blank batch (i.e., buffer) is run to ensure equipment is operating properly. The samples are thawed at 37° C. for 10 minutes, briefly centrifuged, and transfer to the bench top. Wells A1 and H12 are spiked with 1 μL 500 μM internal standard peptide, and the plates centrifuged at 2000×g for 5 minutes. The method is then run and masses of each individual well recorded.
The masses (for which integration data is desired) for each well are pasted into the platemap and exported from the analysis. Masses for the internal standards are exported as well. The data at 50 ppm is extracted for the +19 charge state, and identity of well A1 is assigned using the internal standard spike and integrated. Peak data is exported as a TOF list and the above steps are repeated individually, for the +20, 21, 22, 23, 24, and 25 charge states.
The masses and peak intensities of KRAS G12C protein species were measured using a Dionex RSLCnano system (Thermo Scientific) connected to a Q Exactive Plus mass spectrometer (Thermo Scientific).
[…] of sample was each loaded onto a Aeris™ 3.6 μm WIDEPORE C4 200 Å, LC Column 50×2.1 mm column maintained at 40° C. at a flow rate of 600 μl min^−1 with […] (0.1% formic acid in acetonitrile). The liquid chromatography conditions were 20% solvent B for 1 min, 20% to 60% solvent B for 1.5 min, 60% to 90% solvent for 0.5 min, 90% solvent B for 0.2 min, 90% to 20% solvent B for 0.2 min, and then equilibrated for 1.6 min before the following sample injection. The flow rate was maintained at 600 μl min^−1 throughout the sample analysis.
The mass spectrometer was operated in profile mode at a resolution of 17500, 5 microscans, using 50 msec max injection time and an AGC target of 1e6, and a full mass range from 800-1850 m/z was recorded. The HCD trapping gas was optimized for maximum sensitivity for intact proteins. The ionization method was electrospray ionization, which used a spray voltage of 4 kV, sheath gas flow set to 50 au, auxiliary gas flow set to 10 au and sweep gas flow set to 1 au. […]
With `C=CC(=O)N1C[C@H](C)N(c2nc(OCCc3nccc(C)n3)nc3c(F)c(-c4c(O)cccc4F)c(Cl)cc23)C[C@H]1C` (atropisomer, axis not shown) [Compound 257, 1-((2R,5S)-4-(6-chloro-8-fluoro-7-((S)-2-fluoro-6-hydroxyphenyl)-2-(2-(4-methylpyrimidin-2-yl)ethoxy)quinazolin-4-yl)-2,5-dimethylpiperazin-1-yl)prop-2-en-1-one], the Binding % result is “+++ (+++ indicates binding activity greater than 90%)”.

For the molecule `C=CC(=O)N1C[C@H](C)N(c2nc(OCCc3ncc(N(C)C)cn3)nc3c(F)c(-c4c(O)cccc4F)c(Cl)cc23)C[C@H]1C` (atropisomer, axis not shown) [Compound 258, 1-((2R,5S)-4-(6-chloro-2-(2-(5-(dimethylamino)pyrimidin-2-yl)ethoxy)-8-fluoro-7-((S)-2-fluoro-6-hydroxyphenyl)quinazolin-4-yl)-2,5-dimethylpiperazin-1-yl)prop-2-en-1-one], the Binding % result is given as “+++ (+++ indicates binding activity greater than 90%)”.

As to `C=CC(=O)N1C[C@H](C)N(c2nc(OCCn3cncn3)nc3c(F)c(-c4c(O)cccc4F)c(Cl)cc23)C[C@H]1C` (atropisomer, axis not shown) [Compound 259, 1-((2R,5S)-4-(2-(2-(1H-1,2,4-triazol-1-yl)ethoxy)-6-chloro-8-fluoro-7-((S)-2-fluoro-6-hydroxyphenyl)quinazolin-4-yl)-2,5-dimethylpiperazin-1-yl)prop-2-en-1-one], the Binding % entry is given as “+++ (+++ indicates binding activity greater than 90%)”.

As to `C=CC(=O)N1C[C@H](C)N(c2nc(OCCc3cncnc3)nc3c(F)c(-c4c(O)cccc4F)c(Cl)cc23)C[C@H]1C` (atropisomer, axis not shown) [Compound 262, 1-((2R,5S)-4-(6-chloro-8-fluoro-7-((S)-2-fluoro-6-hydroxyphenyl)-2-(2-(pyrimidin-5-yl)ethoxy)quinazolin-4-yl)-2,5-dimethylpiperazin-1-yl)prop-2-en-1-one], the Binding % entry is recorded as “+++ (+++ indicates binding activity greater than 90%)”.

On to `C=CC(=O)N1C[C@H](C)N(c2nc(OCCn3ccnc3C)nc3c(F)c(-c4c(O)cccc4F)c(Cl)cc23)C[C@H]1C` (atropisomer, axis not shown) [Compound 264, 1-((2R,5S)-4-(6-chloro-8-fluoro-7-((S)-2-fluoro-6-hydroxyphenyl)-2-(2-(2-methyl-1H-imidazol-1-yl)ethoxy)quinazolin-4-yl)-2,5-dimethylpiperazin-1-yl)prop-2-en-1-one], for which the Binding % entry is listed as “+++ (+++ indicates binding activity greater than 90%)”.

As to `C=CC(=O)N1C[C@H](C)N(c2nc(OCCn3ccccc3=O)nc3c(F)c(-c4c(O)cccc4F)c(Cl)cc23)C[C@H]1C` (atropisomer, axis not shown) [Compound 265, 1-(2-(4-((2S,5R)-4-acryloyl-2,5-dimethylpiperazin-1-yl)-6-chloro-8-fluoro-7-((S)-2-fluoro-6-hydroxyphenyl)quinazolin-2-yloxy)ethyl)pyridin-2(1H)-one], the Binding % entry is given as “+++ (+++ indicates binding activity greater than 90%)”.

In the case of `C=CC(=O)N1CCN(c2nc(OCCc3ncccn3)nc3c(F)c(-c4c(O)cccc4F)c(Cl)cc23)C[C@H]1C` (atropisomer, axis not shown) [Compound 267, 1-((R)-4-(6-chloro-8-fluoro-7-((R)-2-fluoro-6-hydroxyphenyl)-2-(2-(pyrimidin-2-yl)ethoxy)quinazolin-4-yl)-2-methylpiperazin-1-yl)prop-2-en-1-one], the Binding % result was “+ (+ indicates binding activity greater than 0% and up to 50%)”.

As to `C=CC(=O)N1CCN(c2nc(OCCc3ncccn3)nc3c(F)c(-c4c(O)cccc4F)c(Cl)cc23)C[C@H]1C` (atropisomer, axis not shown) [Compound 268, 1-((R)-4-(6-chloro-8-fluoro-7-((S)-2-fluoro-6-hydroxyphenyl)-2-(2-(pyrimidin-2-yl)ethoxy)quinazolin-4-yl)-2-methylpiperazin-1-yl)prop-2-en-1-one], the Binding % result is on record as “+++ (+++ indicates binding activity greater than 90%)”.

Consider `C=CC(=O)N1C[C@H](C)N(c2nc(N3CC(N(C)C)C3)nc3c(F)c(-c4c(O)cccc4F)c(C(F)(F)F)cc23)C[C@H]1C` (atropisomer, axis not shown) [Compound 269, 1-((2R,5S)-4-(2-(3-(dimethylamino)azetidin-1-yl)-8-fluoro-7-((S)-2-fluoro-6-hydroxyphenyl)-6-(trifluoromethyl)quinazolin-4-yl)-2,5-dimethylpiperazin-1-yl)prop-2-en-1-one], for which the Binding % result is “+ (+ indicates binding activity greater than 0% and up to 50%)”.

In the case of `C=CC(=O)N1C[C@H](C)N(c2nc(N3CC(N(C)C)C3)nc3c(F)c(-c4c(O)cccc4F)c(C(F)(F)F)cc23)C[C@H]1C` (atropisomer, axis not shown) [Compound 270, 1-((2R,5S)-4-(2-(3-(dimethylamino)azetidin-1-yl)-8-fluoro-7-((R)-2-fluoro-6-hydroxyphenyl)-6-(trifluoromethyl)quinazolin-4-yl)-2,5-dimethylpiperazin-1-yl)prop-2-en-1-one], the Binding % entry was “+++ (+++ indicates binding activity greater than 90%)”.

On to `C=CC(=O)N1CCN(c2nc(N3CC(N(C)C)C3)nc3c(F)c(-c4c(O)cccc4F)c(C(F)(F)F)cc23)C[C@H]1C` (atropisomer, axis not shown) [Compound 271, 1-((R)-4-(2-(3-(dimethylamino)azetidin-1-yl)-8-fluoro-7-((S)-2-fluoro-6-hydroxyphenyl)-6-(trifluoromethyl)quinazolin-4-yl)-2-methylpiperazin-1-yl)prop-2-en-1-one], for which the Binding % result was “+ (+ indicates binding activity greater than 0% and up to 50%)”.

As for `C=CC(=O)N1CCN(c2nc(N3CC(N(C)C)C3)nc3c(F)c(-c4c(O)cccc4F)c(C(F)(F)F)cc23)C[C@H]1C` (atropisomer, axis not shown) [Compound 272, 1-((R)-4-(2-(3-(dimethylamino)azetidin-1-yl)-8-fluoro-7-((R)-2-fluoro-6-hydroxyphenyl)-6-(trifluoromethyl)quinazolin-4-yl)-2-methylpiperazin-1-yl)prop-2-en-1-one], the Binding % entry is reported as “+++ (+++ indicates binding activity greater than 90%)”.

With `C=CC(=O)N1C[C@H](C)N(c2nc(OCCn3ccnc3C3CC3)nc3c(F)c(-c4c(O)cccc4F)c(Cl)cc23)C[C@H]1C` (atropisomer, axis not shown) [Compound 275, 1-((2R,5S)-4-(6-chloro-2-(2-(2-cyclopropyl-1H-imidazol-1-yl)ethoxy)-8-fluoro-7-((S)-2-fluoro-6-hydroxyphenyl)quinazolin-4-yl)-2,5-dimethylpiperazin-1-yl)prop-2-en-1-one], the Binding % result is recorded as “+++ (+++ indicates binding activity greater than 90%)”.

Take `C=CC(=O)N1C[C@H](C)N(c2nc(OCCn3ccnc3CC)nc3c(F)c(-c4c(O)cccc4F)c(Cl)cc23)C[C@H]1C` (atropisomer, axis not shown) [Compound 277, 1-((2R,5S)-4-(6-chloro-2-(2-(2-ethyl-1H-imidazol-1-yl)ethoxy)-8-fluoro-7-((S)-2-fluoro-6-hydroxyphenyl)quinazolin-4-yl)-2,5-dimethylpiperazin-1-yl)prop-2-en-1-one]: the Binding % entry is “+++ (+++ indicates binding activity greater than 90%)”.
